Values of other authors as cited in US12194002B2, “Compositions and methods to improve the therapeutic benefit of suboptimally administered chemical compounds including substituted hexitols such as dibromodulcitol” (priority 2011, dated 2025).

Experiments:
[1] = target: JAK2V617F mutant of the JAK2 tyrosine kinase (Homo sapiens, UniProt O60674, V617F)
JAK2V617F mutant of the JAK2 tyrosine kinase, sequence (O60674 whole entry V617F): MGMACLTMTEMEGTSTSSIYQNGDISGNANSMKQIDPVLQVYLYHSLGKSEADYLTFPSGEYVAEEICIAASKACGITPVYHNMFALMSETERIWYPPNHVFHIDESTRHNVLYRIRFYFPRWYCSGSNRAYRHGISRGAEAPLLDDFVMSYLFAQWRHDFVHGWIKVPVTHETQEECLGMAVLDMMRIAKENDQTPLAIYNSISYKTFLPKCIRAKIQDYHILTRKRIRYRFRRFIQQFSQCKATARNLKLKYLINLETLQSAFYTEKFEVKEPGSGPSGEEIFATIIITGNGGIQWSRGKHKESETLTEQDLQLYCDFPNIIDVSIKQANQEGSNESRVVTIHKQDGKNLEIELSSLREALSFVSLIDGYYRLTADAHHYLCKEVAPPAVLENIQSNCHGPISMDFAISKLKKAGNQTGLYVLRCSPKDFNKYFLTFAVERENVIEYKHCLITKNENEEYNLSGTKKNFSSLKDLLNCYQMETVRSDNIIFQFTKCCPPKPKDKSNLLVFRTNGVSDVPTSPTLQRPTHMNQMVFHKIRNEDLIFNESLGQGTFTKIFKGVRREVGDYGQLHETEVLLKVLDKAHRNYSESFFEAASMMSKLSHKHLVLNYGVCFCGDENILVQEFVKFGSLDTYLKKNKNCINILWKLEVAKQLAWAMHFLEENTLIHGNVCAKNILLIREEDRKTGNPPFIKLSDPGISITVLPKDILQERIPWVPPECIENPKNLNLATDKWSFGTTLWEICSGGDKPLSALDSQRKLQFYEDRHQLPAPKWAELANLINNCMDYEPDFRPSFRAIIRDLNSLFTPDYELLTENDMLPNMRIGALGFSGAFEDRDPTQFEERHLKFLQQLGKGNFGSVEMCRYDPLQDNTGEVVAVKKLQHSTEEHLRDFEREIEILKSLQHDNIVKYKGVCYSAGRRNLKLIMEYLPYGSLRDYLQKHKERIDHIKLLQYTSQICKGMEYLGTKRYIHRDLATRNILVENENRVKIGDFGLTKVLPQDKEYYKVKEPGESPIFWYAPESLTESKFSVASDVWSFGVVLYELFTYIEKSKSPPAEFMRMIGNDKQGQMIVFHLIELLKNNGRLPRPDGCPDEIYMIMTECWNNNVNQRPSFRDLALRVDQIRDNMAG

Inhibition of JAK2V617F mutant [1] | Absorption by the oral route | SMILES
potent inhibitor | – | C#Cc1cccc(Nc2ncnc3cc(OCCOC)c(OCCOC)cc23)c1 [Tarceva, N-(3-ethynylphenyl)-6,7-bis(2-methoxyethoxy)quinazolin-4-amine]
– | rapid and fairly complete | O[C@H]([C@H](O)[C@@H](O)CBr)[C@H](O)CBr [dibromodulcitol]
